Experimental data taken from US6733986B1, “Method and agent for determining a deaminase enzymatic activity” (Bio Merieux, priority 1997, dated 2004).

Legend:
[1] = system: strains which belong to the group Proteus; experiment: Example of a gelled medium with O-toluene-sulfonyl-L-tyrosine and iron citrate; assay type: cell-based; settings: 0.5 g/l with iron citrate at 0.5 g/l in gelled medium; after 18 to 24 hours of incubation
Excerpt: As an example of a gelled medium, O-toluene-sulfonyl-L-tyrosine at 0.5 g/l and iron citrate at 0.5 g/l can be incorporated into the culture medium, in the following medium:
this medium being able to be inoculated with various Gram-negative or Gram-positive microorganisms.

[2] = system: bacteria belonging to the group Proteus; experiment: Differentiation of the group Proteus from other bacteria in liquid medium (Example 7); assay type: cell-based; settings: after 48 hours
Description: Two media were prepared according to the usual techniques. […] The composition of the Media III and IV for one liter of final medium is as follows: [table] The pH of the media was adjusted to approximately 7.2. In Medium III, the detection agent for the enzymatic activity such as deaminase activity which was used is the natural amino acid L-histidine, at 1.5 g/l; in Medium IV, the detection agent for the enzymatic activity such as deaminase activity which is used is of [sic] N-toluene-sulfonyl-L-histidine, at 0.5 g/l. The media were distributed into test tubes, in a sterile manner. These two media were inoculated with the 12 bacterial strains described in Example 6. The tubes were incubated for 48 hours at 37° C., and were examined visually after 48 hours according to the following interpretation: the browning of the tube reflects the presence of an enzymatic activity such as deaminase activity, and thus of a bacterium of the group Proteus, the absence of browning signifies the absence of bacteria of the group Proteus.

Row | Structure (SMILES) | colour of colonies of strains of the group Proteus [1] | differentiation of bacteria of the group Proteus from those not belonging thereto [2]
1 | Cc1ccc(S(=O)(=O)Oc2ccc(C[C@H](N)C(=O)O)cc2)cc1 [Example 2, 4-O-tosyl-L-tyrosine] | brown colonies | 
2 | N[C@@H](Cc1c[nH]cn1)C(=O)O [L-histidine] |  | high sensitivity and specificity
